In the experiment the target is T1, acyl coenzyme A: cholesterol O-acyltransferase (ACAT) (Oryctolagus cuniculus, UniProt G1SFD9).
T1 construct: The microsomal fraction was isolated by centrifugation and stored frozen; from tissue; host or cells: jejunal mucosa microsomes of New Zealand white rabbits
T1 sequence (G1SFD9 1-524): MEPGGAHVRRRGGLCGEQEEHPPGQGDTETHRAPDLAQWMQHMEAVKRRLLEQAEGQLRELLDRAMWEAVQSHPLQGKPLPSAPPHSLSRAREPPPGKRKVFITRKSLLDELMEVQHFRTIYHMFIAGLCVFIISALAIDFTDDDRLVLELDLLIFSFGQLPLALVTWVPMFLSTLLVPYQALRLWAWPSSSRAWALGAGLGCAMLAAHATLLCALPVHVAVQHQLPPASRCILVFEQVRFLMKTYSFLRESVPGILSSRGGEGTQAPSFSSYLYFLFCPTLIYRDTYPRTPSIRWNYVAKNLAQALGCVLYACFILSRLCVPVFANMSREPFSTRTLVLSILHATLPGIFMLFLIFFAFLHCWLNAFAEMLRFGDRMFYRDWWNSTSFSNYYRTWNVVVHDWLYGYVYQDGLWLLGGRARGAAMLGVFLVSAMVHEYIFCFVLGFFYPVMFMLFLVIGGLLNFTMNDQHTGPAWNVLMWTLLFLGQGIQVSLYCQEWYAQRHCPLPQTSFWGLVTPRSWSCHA
Put plainly: Inhibition of ACAT catalyzed formation of cholesterol oleate from endogenous cholesterol and exogenous 14C oleate. Conditions: for IC50: concentration at which 50% of the cholesterol esterification reaction is inhibited, rabbit jejunum mucosa microsomal fraction; for potency as inhibitors of the ACAT enzyme catalyzed reaction (in words): summary statement on Table I. The class given is biochemical, New Zealand white rabbits. How it is done:
The compounds of this invention were tested for their ability to inhibit the acyl coenzyme A: cholesterol O-acyltransferase (ACAT) catalyzed formation of cholesterol oleate from endogenous cholesterol and exogenous ^14 C oleate.
The mucosa from the Jejunum of New Zealand white rabbits was removed by scraping with a spatula and homogenized in a solution containing 0.25M sucrose, 1 mM EDTA, 1 mM dithiothreitol and 5 mM of potassium phosphate (pH 7.4). The microsomal fraction was isolated by centrifugation and stored frozen at -70° C. in sucrose buffer (3 mg protein/ml) until use. The ACAT reaction was assayed using the method of S. Hashimoto, et al., Life Science 12, 1 (1973). The test compounds were dissolved in methanol at concentrations such that the addition of 0.003 ml in a reaction volume of 0.5 ml gave the final desired concentration.
Referring to the table, IC50 indicates the concentration of the compound at which 50% of the cholesterol esterfication reaction is inhibited. […] As can be observed from the table, the compounds of the present invention are very potent inhibitors of the ACAT enzyme catalyzed reaction. […] In view of the results presented in the table, these compounds are useful for controlling and reducing the cholesteryl ester content of mammalian arterial walls and decreasing the accumulation and storage of cholesterol in the arterial walls of mammals. Further, the compounds of this invention may inhibit the formation or development of atherosclerotic lesions in mammals.

Experimental findings from patent US5173510A, “Simplified thioester and isostere analogs of oleoyl coenzyme A as hypocholesterolemic agents” (American Cyanamid Company, priority 1991, dated 1992) are described below.

Structures are written as SMILES.

In the case of `CCCCCCCC/C=C\CCCCCCCC(=O)SCCNC(C)=O` [Example 3, S-[2-(Acetylamino)ethyl]-9(Z)-octadecenethioic acid], the IC50 – broadly, the concentration at which inhibition is half-maximal – is greater than 100 µM.

The compound `CCCCCCCC/C=C\CCCCCCCC(O)CCCNC(=O)CCNC(C)=O` (stereo not drawn) [Example 33, 3-(Acetylamino)-N-(4-hydroxy-12(Z)-heneicosenyl)propanamide] registered a half-inhibitory concentration (IC50) of 108 µM.

Compound `CCCCCCCC/C=C\CCCCCCCC(=O)NCCNC(C)=O` [Example 18, N-[2-(Acetylamino)ethyl]-9(Z)-octadecenamide] came in with an IC50 of 39 µM.

`CCCCCCCC/C=C\CCCCCCCC(O)CCCNC(=O)CCNC(=O)C(O)C(C)(C)CO` (stereo not drawn) [Example 38, 2,4-Dihydroxy-N-[3-[(4-hydroxy-12(Z)-heneicosyl)amino]-3-oxopropyl]-3,3-dimethylbutanamide] showed an IC50 of 57 µM.

In turn, `CCCCCCCC/C=C\CCCCCCCC(=O)OCCNC(C)=O` [Example 11] showed an IC50 greater than 100 µM.

With `CCCCCCCC/C=C\CCCCCCCC(O)CCCNC(C)=O` (stereo not drawn) [Example 31], the half-maximal inhibitory concentration (IC50) was determined as 47 µM. That is a double-digit micromolar value.

Turning to `CCCCCCCC/C=C\CCCCCCCC(=O)OCCNC(=O)CCNC(C)=O` [Example 13, 2-[[3-(Acetylamino)-1-oxopropyl]amino]ethyl-9(Z)-octadecenoate], the IC50 was greater than 150 µM.

`CCCCCCCC/C=C\CCCCCCCC(=O)SCCNC(=O)CCNC(=O)[C@H](O)C(C)(C)CO` [Example 10, S-[2-[[3-[(2,4-Dihydroxy-3,3-dimethyl-1-oxobutyl)amino]-1-oxopropyl]amino]ethyl]-9(Z)octadecenethioic acid] displayed an IC50 of 103 µM.

On to `CCCCCCCC/C=C\CCCCCCCC(=O)OCCNC(=O)CCNC(=O)C(O)C(C)(C)CO` (stereo not drawn) [Example 17, 2-[[3-[(2,4-Dihydroxy-3,3-dimethyl-1-oxo-butyl)amino]-1-oxopropyl]amino]ethyl-9(Z)-octadecenoate], for which the half-inhibitory concentration (IC50) stood at 77 µM.

Take `CCCCCCCC/C=C\CCCCCCCC(=O)NCCNC(=O)CCNC(C)=O` [Example 22, N-[2-[[3-(Acetylamino)-1-oxopropyl]amino]ethyl]-9(Z)-octadecenamide]: the IC50 was greater than 100 µM.

On to `CCCCCCCC/C=C\CCCCCCCC(=O)NCCNC(=O)CCNC(=O)C1OC(C)(C)OCC1(C)C` (stereo not drawn) [Example 25, 2,2,5,5-Tetramethyl-N-[3-oxo-3-[[2-[(1-oxo-9(Z)-octadecenyl)amino]ethyl]amino]propyl]-1,3-dioxane-4-carboxamide], for which the IC50 is 1.2 µM and the “potency as inhibitors of the ACAT enzyme catalyzed reaction (in words)” value was “most potent”.

As to `CCCCCCCC/C=C\CCCCCCCC(=O)NCCNC(=O)CCNC(=O)C(O)C(C)(C)CO` (stereo not drawn) [Example 26, N-[2-[[3-[(2,4-Dihydroxy-3,3-dimethyl-1-oxo-butyl)amino]-1-oxopropyl]amino]ethyl]-9(Z)-octadecenamide], the IC50 worked out at 3.3 µM and the “potency as inhibitors of the ACAT enzyme catalyzed reaction (in words)” value is on record as “most potent”.

Take `CCCCCCCC/C=C\CCCCCCCC(=O)CCCNC(=O)CCNC(C)=O` [Example 34, 3-(Acetylamino)-N-(4-oxo-12(Z)-heneicosenyl)propanamide]: the IC50 is 113 µM.

`CCCCCCCC/C=C\CCCCCCCC(=O)CCCNC(C)=O` [Example 32]: it took 66 µM to reach half-maximal inhibition (IC50).

For the compound `CCCCCCCC/C=C\CCCCCCCC(=O)CCCNC(=O)CCNC(=O)C(O)C(C)(C)CO` (stereo not drawn) [Example 37, 2,4-Dihydroxy-2,2-dimethyl-N-[3-oxo-3-[(4-oxo-12(Z)-heneicosenyl)amino]propyl]butanamide], it took 99 µM to reach half-maximal inhibition (IC50). Against the preceding compound, the IC50 is about 1.5-fold higher.

`CCCCCCCC/C=C\CCCCCCCC(=O)SCCNC(=O)CCNC(C)=O` [Example 6, S-[2-[[3-(Acetylamino)-1-oxopropyl]amino]ethyl]-9(Z)-octadecenethioate] returned a half-inhibitory concentration (IC50) greater than 100 µM.
